Consider one molecule from article PMC10764104, “Discovery of Molecular Glue Degraders via Isogenic Morphological Profiling” (ACS Chemical Biology, 2023).

The assay concerns the target T1, GSPT2 G566N (Homo sapiens, UniProt Q8IYD1, G566N).
T1 construct: expressed in transfected cells; host or cells: RKO cells, lentiviral transduction, puromycin-selected
The assay can be described thus: Western blot (HA-tag) of G-loop mutant GSPT2 in RKO cells. The assay is classed as cell-based. The note with it: RKO cells stably overexpressing HA-GSPT2 G566N, 16 h; 10 μM FL2-14 or 10 nM CC-885. As for the experimental part: Figure 3 FL2-14 is a selective GSPT2 molecular glue degrader. (A) Structure of FL2-14 comprising fluorosulfate scaffold FL2 (black) and tail group modification 14 (blue). (B) DMSO-normalized quantitative proteomics after 16 h of treatment with FL2-14 (10 μM) in RKO WT (n = 2). […] (C) Structural alignment of AlphaFold models of GSPT1 (AF-P15170-F1-model_v4 in gray) and GSPT2 (AF-Q8IYD1-F1-model_v4 in blue). (D) Validation of GSPT2 degradation by FL2-14. […] (E) Dose–response of FL2-14 in RKO and HEK293T cells. Cells were treated with the FL2-14 (0 to 10 μM) for 16 h. (F) Degradation of GSPT2^WT or GSPT2^G566N.
Prediction of the G‐loop degron sequence in GSPT2
We first compiled all CRBN degron sequences with known crystal structures (Table S 2). We subsequently discarded 6UML as its degron sequence included an alanine instead of the typical glycine observed in the seventh amino acid residue of other degron sequences, leaving six degron sequences. We then scanned the latest AlphaFold structure of GSPT215 for a potential stretch of 10 amino acids that would align best with each degron sequence. We yielded the same stretch of amino acid residues from position 560 to 569 ([…]) and RMSD values under 0.5 Å.
Table S 2: List of crystal structures used for the computational prediction of the G‐loop degron sequence […]
PDB code Resolution (Å) Chain Segment Sequence Reference
Analysis of G‐loop mutation […]
For orientation: Immunoblotting shows a protein as a band on a membrane.

T1 sequence (Q8IYD1 whole entry G566N): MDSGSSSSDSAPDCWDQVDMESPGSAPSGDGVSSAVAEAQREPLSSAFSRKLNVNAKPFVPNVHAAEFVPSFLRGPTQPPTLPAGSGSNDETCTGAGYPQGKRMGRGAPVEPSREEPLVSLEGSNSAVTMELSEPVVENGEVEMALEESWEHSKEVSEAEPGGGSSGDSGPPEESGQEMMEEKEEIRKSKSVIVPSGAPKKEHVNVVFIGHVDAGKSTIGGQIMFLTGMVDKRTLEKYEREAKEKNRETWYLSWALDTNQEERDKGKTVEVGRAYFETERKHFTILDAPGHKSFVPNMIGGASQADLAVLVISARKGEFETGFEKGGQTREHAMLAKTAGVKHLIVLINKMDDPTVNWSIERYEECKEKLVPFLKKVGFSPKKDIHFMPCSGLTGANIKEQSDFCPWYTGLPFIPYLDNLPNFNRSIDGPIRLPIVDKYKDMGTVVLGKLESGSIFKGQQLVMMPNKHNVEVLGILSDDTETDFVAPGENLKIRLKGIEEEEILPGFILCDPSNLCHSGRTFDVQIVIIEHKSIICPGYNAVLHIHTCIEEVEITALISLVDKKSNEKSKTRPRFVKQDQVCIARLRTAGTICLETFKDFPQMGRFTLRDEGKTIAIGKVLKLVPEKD

For the molecule `Cc1ccc(NC(=O)NCc2ccc3c(c2)CN(C2CCC(=O)NC2=O)C3=O)cc1Cl` (stereo not shown) [CC-885, reference compound], the “degradation of HA-tagged GSPT2 G566N (glycine of G-loop replaced by asparagine)” value was “rescued degradation of GSPT2”.
